Four molecules from patent US10738011B2, “Derivatives of 5-(hetero)arylpyrazol-3-carboxylic amide or 1-(hetero)aryltriazol-4-carboxylic amide useful for the treatment of inter alia cystic fibrosis” (Proteostasis Therapeutics, Inc., priority 2014, dated 2020) can be followed below.

For this assay, the target named is T1, ΔF508-CFTR (Homo sapiens, UniProt P13569, DEL508-508).
T1 construct: Primary lung epithelial cells homozygous for the Cystic Fibrosis-causing ΔF508 mutation were differentiated; endogenous in cells; host or cells: primary lung (bronchial) epithelial cells (hBE) homozygous for ΔF508, differentiated at an air-liquid interface
T1 sequence (P13569 with tags, fused parts or gaps DEL508-508): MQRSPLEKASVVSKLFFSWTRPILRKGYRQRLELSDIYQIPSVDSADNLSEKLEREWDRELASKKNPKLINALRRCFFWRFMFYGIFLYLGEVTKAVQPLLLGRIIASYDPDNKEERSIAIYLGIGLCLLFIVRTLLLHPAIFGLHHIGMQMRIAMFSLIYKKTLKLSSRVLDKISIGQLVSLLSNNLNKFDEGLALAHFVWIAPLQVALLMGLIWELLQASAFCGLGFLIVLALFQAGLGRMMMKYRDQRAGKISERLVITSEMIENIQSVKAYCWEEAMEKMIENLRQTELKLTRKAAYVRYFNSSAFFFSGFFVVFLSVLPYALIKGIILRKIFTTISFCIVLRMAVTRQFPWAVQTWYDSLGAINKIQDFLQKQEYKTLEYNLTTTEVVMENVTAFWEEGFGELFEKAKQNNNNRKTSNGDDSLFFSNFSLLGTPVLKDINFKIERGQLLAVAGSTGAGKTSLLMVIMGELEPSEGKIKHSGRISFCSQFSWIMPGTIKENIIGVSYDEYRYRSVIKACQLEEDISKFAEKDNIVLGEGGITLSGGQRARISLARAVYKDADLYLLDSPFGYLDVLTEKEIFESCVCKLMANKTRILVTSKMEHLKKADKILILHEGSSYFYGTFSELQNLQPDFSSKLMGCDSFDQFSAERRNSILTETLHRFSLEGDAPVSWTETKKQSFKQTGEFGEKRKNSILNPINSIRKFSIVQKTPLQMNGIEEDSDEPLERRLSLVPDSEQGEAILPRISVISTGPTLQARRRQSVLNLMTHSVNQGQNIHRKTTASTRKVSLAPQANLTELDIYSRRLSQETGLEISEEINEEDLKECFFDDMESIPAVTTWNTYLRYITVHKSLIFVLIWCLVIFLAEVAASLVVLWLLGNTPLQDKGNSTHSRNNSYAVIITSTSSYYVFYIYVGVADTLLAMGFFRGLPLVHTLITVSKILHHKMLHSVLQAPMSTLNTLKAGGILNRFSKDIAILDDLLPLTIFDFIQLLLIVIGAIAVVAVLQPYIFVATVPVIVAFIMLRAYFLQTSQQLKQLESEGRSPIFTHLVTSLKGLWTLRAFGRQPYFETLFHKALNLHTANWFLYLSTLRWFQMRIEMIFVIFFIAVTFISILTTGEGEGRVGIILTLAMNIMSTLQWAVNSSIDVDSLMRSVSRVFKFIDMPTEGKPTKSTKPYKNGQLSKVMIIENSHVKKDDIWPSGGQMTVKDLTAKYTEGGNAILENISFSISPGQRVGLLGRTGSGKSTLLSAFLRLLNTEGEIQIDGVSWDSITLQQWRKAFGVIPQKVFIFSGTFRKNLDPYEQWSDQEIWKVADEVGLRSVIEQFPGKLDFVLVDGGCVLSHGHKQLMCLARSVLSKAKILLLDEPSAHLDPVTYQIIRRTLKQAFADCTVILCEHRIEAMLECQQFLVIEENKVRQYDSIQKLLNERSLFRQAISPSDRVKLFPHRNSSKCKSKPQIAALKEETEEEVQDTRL
Briefly: hBE Equivalent Current (Ieq) Assay. The assay is classed as cell-based. Conditions: AUC of equivalent chloride current; primary lung epithelial cells homozygous for ΔF508; compound at 10 uM with VX-809 at 1 uM, 24 hours; activity relative to VX-809 (1 uM). Here is the method: Primary lung epithelial cells homozygous for the Cystic Fibrosis-causing ΔF508 mutation were differentiated for a minimum of 4 weeks in an air-liquid interface on Costar 24 well HTS filter plates prior to the equivalent current (Ieq) measurements. Cells were apically mucus-washed for 30 minutes 24 h prior to treatment with compounds. The basolateral media was removed and replaced with media containing the compound of interest diluted to its final concentration from DMSO stocks. Treated cells were incubated at 37° C. and 5% CO2 for 24 hours. At the end of the treatment period, the media was changed to the Ieq experimental solution for 30 minutes before the experiment and plates are maintained in a CO2-free incubator during this period. The plates containing the cells were then placed in pre-warmed heating blocks at 36° C.±0.5 for 15 minutes before measurements are taken. The transepithelial voltage (VT) and conductance (GT) were measured using a custom 24 channel current clamp (TECC-24) with 24 well electrode manifold. The Ieq assay measurements were made following additions with standardized time periods: • 1. The baseline VT and GT values were measured for approximately 20 minutes. • 2. Benzamil was added to block ENaC for 15 minutes. • 3. Forskolin plus VX-770 were added to maximally activate ΔF508-CFTR for 27 minutes. • 4. Bumetanide was added to inhibit the NaK2Cl cotransporter and shut-off secretion of chloride.
The activity data captured was the area under the curve (AUC) for the traces of the equivalent chloride current. The AUC was collected from the time of the forskolin/VX-770 addition until the inhibition by bumetanide addition. Correction in response to compound treatment was scored as the increase in the AUC for compound-treated samples over that of vehicle-treated samples. (** indicates activity ≥200% of VX-809 (1 uM) with compound at 10 uM and VX-809 at 1 uM; * indicates activity 100-200% of VX-809 (1 uM) with compound at 10 uM and VX-809 at 1 uM. ^## indicates activity ≥200% of VX-809 (3 uM) with compound at 10 uM and VX-809 at 3 uM; ^# indicates activity 100-200% of VX-809 (3 uM) with compound at 10 uM and VX-809 at 3 uM.
Turning to `O=C(NCCN1CCOCC1)c1cc(-c2ccccc2)n[nH]1`, the Ieq entry was “* (activity 100-200% of VX-809 (1 uM) with compound at 10 uM and VX-809 at 1 uM)”.

Regarding `COCCNC(=O)c1cc(-c2ccccc2)n[nH]1`, the Ieq result was “* (activity 100-200% of VX-809 (1 uM) with compound at 10 uM and VX-809 at 1 uM)”.

In the case of `O=C(NCCCn1ccnc1)c1cc(-c2ccccc2)n[nH]1`, the Ieq entry is “* (activity 100-200% of VX-809 (1 uM) with compound at 10 uM and VX-809 at 1 uM)”.

`O=C(NCC1CCCO1)c1cc(-c2ccccc2)n[nH]1` (stereo not shown): the Ieq entry is “* (activity 100-200% of VX-809 (1 uM) with compound at 10 uM and VX-809 at 1 uM)”.
